“Also recorded” adds a separate entry of the source. Like-named read-outs stand apart in the source and are kept apart here.
Tests used:
BHK-21 cells = settings: for Cytotoxicity CC10 (maximum non-toxic concentration): hamster
FMDV 3C^pro = FMDV 3C^pro (Foot-and-mouth disease virus serotype O, UniProt P03305); format: cell-based
in vitro = settings: hamster
[1] = test system: FMDV serotype A (A/TAI/NP05/2017; NP05); test: in vitro; settings: hamster
FMDV 3D^pol = FMDV 3D^pol (Foot-and-mouth disease virus serotype O, UniProt P03305); test: cell-based; format: cell-based
FMDV 3D^pol, sequence (P03305 1863-2332 limits assumed): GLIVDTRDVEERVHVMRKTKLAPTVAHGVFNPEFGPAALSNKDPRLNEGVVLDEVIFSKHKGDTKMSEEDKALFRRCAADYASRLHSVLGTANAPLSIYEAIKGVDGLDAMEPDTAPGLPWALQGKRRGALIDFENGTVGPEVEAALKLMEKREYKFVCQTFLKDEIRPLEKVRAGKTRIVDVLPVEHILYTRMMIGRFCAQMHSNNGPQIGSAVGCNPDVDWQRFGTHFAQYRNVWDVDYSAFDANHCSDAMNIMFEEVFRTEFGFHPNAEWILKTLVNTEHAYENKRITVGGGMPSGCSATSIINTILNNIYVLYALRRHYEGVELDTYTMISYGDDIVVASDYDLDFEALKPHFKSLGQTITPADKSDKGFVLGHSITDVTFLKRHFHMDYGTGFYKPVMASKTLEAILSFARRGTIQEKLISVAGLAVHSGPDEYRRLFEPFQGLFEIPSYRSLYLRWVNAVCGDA

FMDV serotype A (NP05) [2] = test: microbe, parasite or virus in culture; format: cell-based, Foot-and-Mouth Disease Virus; settings: for EC50: BHK-21, 22 h, read-out: Antiviral Activity EC50, Viral Copy Number (RT-qPCR)
FMDV serotype A (NP05) [3] = test: microbe, parasite or virus in culture; format: cell-based, Foot-and-Mouth Disease Virus; settings: for EC50: Foot-and-mouth disease virus, BHK-21, read-out: Antiviral Activity EC50, Normalized Delta Ct (RT-qPCR)
[4] = test system: FMDV serotype A (A/TAI/NP05/2017; NP05); format: cell-based, Foot-and-Mouth Disease Virus
[5] = test system: FMDV serotype A (A/TAI/NP05/2017; NP05); test: microbe, parasite or virus in culture; settings: Foot-and-mouth disease virus
[6] = test system: influenza virus neuraminidase; settings: 5 µg/mL; cited from earlier work
influenza A (H1N1) virus = settings: cited from earlier work
[7] = BHK-21, read-out: Antiviral Activity EC50, FMDV Specific-Positive Cell (IPMA)

FMDV 3C^pro, sequence (P03305 1650-1862 limits assumed): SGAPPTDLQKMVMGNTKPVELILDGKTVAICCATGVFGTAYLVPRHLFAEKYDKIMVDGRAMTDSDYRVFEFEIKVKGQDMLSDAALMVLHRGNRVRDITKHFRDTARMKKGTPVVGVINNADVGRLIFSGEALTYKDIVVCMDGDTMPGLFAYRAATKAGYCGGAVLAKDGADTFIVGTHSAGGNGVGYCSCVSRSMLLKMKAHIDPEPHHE

Molecule | Cytotoxicity CC10 (maximum non-toxic concentration) (BHK-21 cells) [µM] | CC50 (in vitro) [µM] | EC50 (FMDV serotype A (NP05) [2]; Foot-and-mouth disease virus) [µM] | EC50 (FMDV serotype A (NP05) [3]) [µM] | Inhibition of FMDV infection / cytopathic effect, post-viral entry [4] | EC50 [5, 7] [µM] | Toxicity to BHK-21 cells in words (BHK-21 cells) | other results
c1cc2c(cc1[C@H]1OC[C@H]3[C@@H]1CO[C@H]3c1ccc3c(c1)OCO3)OCO2 [(-)-Asarinin] | 65.05 ± 1.81 | 90.4 ± 1.95 | 36.7 | 31.7 | dose-dependent inhibition | 15.1 | – | Toxicity to BHK-21 cells in words (BHK-21 cells; at 100 µM): moderate cytotoxicity; Effect on FMDV 3C^pro activity (FMDV 3C^pro): Neither sesamin nor (-)-asarinin inhibited FMDV 3C^pro; also recorded: no activity observed; selectivity ratio [1]: 5.99; Fold greater potency compared to sesamin (IC50, minigenome) (FMDV 3D^pol): approximately 7 fold; IC50 (FMDV 3D^pol): 10.4 µM; Selective index SI, GFP Signal (FMDV Minigenome) (FMDV 3D^pol): 10.37 ± 1.01 (9.56 to 11.18) SI = 8.72; Selective index SI, Viral Copy Number (RT-qPCR) (FMDV serotype A (NP05) [2]): 36.70 ± 1.57 (36.06 to 37.34) SI = 2.46; inhibition at 40 µM (FMDV serotype A (NP05) [2]; Foot-and-mouth disease virus, BHK-21, read-out: Inhibition of FMDV viral copy number): 50%; Inhibition of negative-strand RNA production (FMDV serotype A (NP05) [3]): > 60%; Selective index SI, Normalized Delta Ct (RT-qPCR) (FMDV serotype A (NP05) [3]): 31.67 ± 1.50 (30.47 to 32.87) SI = 2.86; EC50 ([5]; BHK-21, read-out: Effect against FMDV infection (range of EC50 values)): 15.1 to 36.7 µM
COc1cc(C2OCC3C(c4cc(OC)c(OC5OC(CO)C(O)C(O)C5O)c(OC)c4)OCC23)cc(OC)c1OC1OC(CO)C(O)C(O)C1O (stereo not shown) [Eleutheroside E] | 11.39 ± 1.05 | 20.8 ± 1.31 | – | – | no potent effect | – | moderate cytotoxicity | –
OC12COC(c3ccc4c(c3)OCO4)C1COC2c1ccc2c(c1)OCO2 (stereo not shown) [Paulownin] | 147.00 ± 2.167 | 860.6 ± 2.93 | – | – | – | – | mild toxicity | –
COc1cc([C@@H]2c3cc4c(cc3[C@H](O)[C@H]3COC(=O)[C@@H]23)OCO4)cc(OC)c1OC [Picropodophyllotoxin] | 50.07 ± 1.70 | 136 ± 2.13 | – | – | – | – | moderate cytotoxicity | –
NC(=O)c1ncn([C@@H]2O[C@H](CO)[C@@H](O)[C@H]2O)n1 [Ribavirin, reference compound] | – | ≥ 500 | 32.8 | 29.4 | – | 39.6 | – | –
c1cc2c(cc1[C@H]1OC[C@H]3[C@@H]1CO[C@@H]3c1ccc3c(c1)OCO3)OCO2 [Sesamin] | 254.20 ± 2.40 | 604.6 ± 2.78 | 82.4 | 60.9 | dose-dependent inhibition | 53 | – | Toxicity to BHK-21 cells in words (BHK-21 cells; at 100 µM): mild toxicity; Effect on FMDV 3C^pro activity (FMDV 3C^pro): Neither sesamin nor (-)-asarinin inhibited FMDV 3C^pro; selectivity ratio [1]: 11.4; Inhibition of influenza virus neuraminidase [6]: inhibited influenza virus neuraminidase; IC50 (FMDV 3D^pol): 74.9 µM; Selective index SI, GFP Signal (FMDV Minigenome) (FMDV 3D^pol): 74.89 ± 1.87 (73.39 to 76.39) SI = 8.07; Inhibition of FMDV viral copy number in words (FMDV serotype A (NP05) [2]): markedly significant inhibition; Selective index SI, Viral Copy Number (RT-qPCR) (FMDV serotype A (NP05) [2]): 82.43 ± 1.92 (81.65 to 83.21) SI = 7.33; Selective index SI, Normalized Delta Ct (RT-qPCR) (FMDV serotype A (NP05) [3]): 60.94 ± 1.79 (60.21 to 61.67) SI = 9.92; Cytotoxicity (influenza A (H1N1) virus): without exhibiting cytotoxicity; Inhibition of influenza A (H1N1) virus (reduced inflammatory cytokines) (influenza A (H1N1) virus): inhibit influenza A (H1N1) virus
Gomisin A | – | – | – | – | no potent effect | – | – | –
